Converted amounts (≈) assume the structure as drawn. The source made the active and inactive calls. No cut-off for these calls is given here.
Assays:
[1] = system: Salmonella typhi; assay: Antibacterial activity against Salmonella enterica subsp. enterica serovar Typhi after 24 hr by two-fold serial dilution method; format: functional
[2] = system: Klebsiella pneumoniae; assay: Antibacterial activity against Klebsiella pneumoniae at 200 ug/mL after 24 hr by two-fold serial dilution method; format: functional, organism-based
[3] = system: Staphylococcus aureus; assay: Antibacterial activity against Staphylococcus aureus after 24 hr by two-fold serial dilution method; format: functional
[4] = system: Candida albicans; assay: Antifungal activity against Candida albicans at 200 ug/ml after 72 to 96 hr by two-fold serial dilution method; format: functional, organism-based
[5] = system: Aspergillus flavus; assay: Antifungal activity against Aspergillus flavus at 200 ug/ml after 72 to 96 hr by two-fold serial dilution method; format: functional, organism-based
[6] = system: Pseudomonas aeruginosa; assay: Antibacterial activity against Pseudomonas aeruginosa after 24 hr by two-fold serial dilution method; format: functional
[7] = system: Escherichia coli; assay: Antibacterial activity against Escherichia coli after 24 hr by two-fold serial dilution method; format: functional
[8] = system: Cryptococcus neoformans; assay: Antifungal activity against Cryptococcus neoformans after 72 to 96 hr by two-fold serial dilution method; format: functional
[9] = system: Rhizopus; assay: Antifungal activity against Rhizopus sp. at 200 ug/ml after 72 to 96 hr by two-fold serial dilution method; format: functional, organism-based
[10] = system: Aspergillus niger; assay: Antifungal activity against Aspergillus niger after 72 to 96 hr by two-fold serial dilution method; format: functional
[11] = system: Rhizopus; assay: Antifungal activity against Rhizopus sp. after 72 to 96 hr by two-fold serial dilution method; format: functional
[12] = system: Candida albicans; assay: Antifungal activity against Candida albicans after 72 to 96 hr by two-fold serial dilution method; format: functional
[13] = system: Aspergillus flavus; assay: Antifungal activity against Aspergillus flavus after 72 to 96 hr by two-fold serial dilution method; format: functional
[14] = system: Klebsiella pneumoniae; assay: Antibacterial activity against Klebsiella pneumoniae after 24 hr by two-fold serial dilution method; format: functional
[15] = system: Cryptococcus neoformans; assay: Ratio of amphotericin-B MIC to compound MIC for Cryptococcus neoformans; format: functional
[16] = system: Aspergillus niger; assay: Ratio of amphotericin-B MIC to compound MIC for Aspergillus niger; format: functional
[17] = system: Staphylococcus aureus; assay: Ratio of ciprofloxacin MIC to compound MIC Staphylococcus aureus; format: functional
[18] = system: Klebsiella pneumoniae; assay: Ratio of ciprofloxacin MIC to compound MIC for Klebsiella pneumoniae; format: functional
[19] = system: Salmonella typhi; assay: Ratio of ciprofloxacin MIC to compound MIC for Salmonella enterica subsp. enterica serovar Typhi; format: functional
[20] = system: Escherichia coli; assay: Ratio of ciprofloxacin MIC to compound MIC for Escherichia coli; format: functional

Row | SMILES | MIC [1] | inhibition [2] | MIC [3] | inhibition [4] | inhibition [5] | MIC [6] | MIC [7] | MIC [8] | inhibition [9] | MIC [10] | MIC [11] | MIC [12] | MIC [13] | MIC [14] | Ratio [15] | Ratio [16] | Ratio [17] | Ratio [18] | Ratio [19] | Ratio [20]
1 | CN1C(c2ccccc2)CC(=NOCc2ccccc2)CC1c1ccccc1 (centres undefined) | 100 µg/mL (≈ 270 µM) | inactive | 200 µg/mL (≈ 540 µM) | inactive | inactive | 100 µg/mL (≈ 270 µM) | 200 µg/mL (≈ 540 µM) | 100 µg/mL (≈ 270 µM) | inactive | 100 µg/mL (≈ 270 µM) |  |  |  |  |  |  |  |  |  | 
2 | COc1ccc(C2CC(=NOCc3ccccc3)CC(c3ccc(OC)cc3)N2C)cc1 (centres undefined) | 50 µg/mL (≈ 116 µM) |  | 50 µg/mL (≈ 116 µM) |  |  | 100 µg/mL (≈ 232 µM) | 100 µg/mL (≈ 232 µM) | 50 µg/mL (≈ 116 µM) |  | 50 µg/mL (≈ 116 µM) | 50 µg/mL (≈ 116 µM) | 100 µg/mL (≈ 232 µM) | 50 µg/mL (≈ 116 µM) | 100 µg/mL (≈ 232 µM) |  |  |  |  |  | 
3 | CC1/C(=N\OCc2ccccc2)CC(c2ccccc2)N(C)C1c1ccccc1 (centres undefined) | 100 µg/mL (≈ 260 µM) | inactive | 100 µg/mL (≈ 260 µM) |  |  | 50 µg/mL (≈ 130 µM) | 100 µg/mL (≈ 260 µM) | 100 µg/mL (≈ 260 µM) | inactive | 50 µg/mL (≈ 130 µM) |  | 200 µg/mL (≈ 520 µM) | 100 µg/mL (≈ 260 µM) |  |  |  |  |  |  | 
4 | Cc1ccc(C2C/C(=N/OCc3ccccc3)C(C)C(c3ccc(C)cc3)N2C)cc1 (centres undefined) | 50 µg/mL (≈ 121 µM) |  | 50 µg/mL (≈ 121 µM) |  |  | 25 µg/mL (≈ 60.6 µM) | 50 µg/mL (≈ 121 µM) | 12.5 µg/mL (≈ 30.3 µM) |  | 25 µg/mL (≈ 60.6 µM) | 25 µg/mL (≈ 60.6 µM) | 50 µg/mL (≈ 121 µM) | 50 µg/mL (≈ 121 µM) | 50 µg/mL (≈ 121 µM) | 2 | 2 |  |  |  | 
5 | C[C@@H]1[C@H](O)[C@@H](C)/C=C/C=C/C=C/C=C/C=C/C=C/C=C/[C@H](O[C@@H]2O[C@H](C)[C@@H](O)[C@H](N)[C@@H]2O)C[C@@H]2O[C@](O)(C[C@@H](O)C[C@@H](O)[C@H](O)CC[C@@H](O)C[C@@H](O)CC(=O)O[C@H]1C)C[C@H](O)[C@H]2C(=O)O [AMPHOTERICIN B] |  |  |  |  |  |  |  | 25 µg/mL (≈ 27.1 µM) |  | 50 µg/mL (≈ 54.1 µM) | 25 µg/mL (≈ 27.1 µM) | 25 µg/mL (≈ 27.1 µM) | 50 µg/mL (≈ 54.1 µM) |  |  |  |  |  |  | 
6 | COc1ccc(C2C/C(=N/OCc3ccccc3)C(C)C(c3ccc(OC)cc3)N2C)cc1 (centres undefined) | 50 µg/mL (≈ 112 µM) |  | 12.5 µg/mL (≈ 28.1 µM) |  |  | 12.5 µg/mL (≈ 28.1 µM) | 25 µg/mL (≈ 56.2 µM) | 12.5 µg/mL (≈ 28.1 µM) |  | 25 µg/mL (≈ 56.2 µM) | 12.5 µg/mL (≈ 28.1 µM) | 25 µg/mL (≈ 56.2 µM) | 25 µg/mL (≈ 56.2 µM) | 25 µg/mL (≈ 56.2 µM) |  |  | 2 | 2 |  | 
7 | O=C(O)c1cn(C2CC2)c2cc(N3CCNCC3)c(F)cc2c1=O [CIPROFLOXACIN] | 50 µg/mL (≈ 151 µM) |  |  |  |  |  | 25 µg/mL (≈ 75.4 µM) |  |  |  |  |  |  |  |  |  |  |  |  | 
8 | Cc1ccc(C2CC(=NOCc3ccccc3)CC(c3ccc(C)cc3)N2C)cc1 (centres undefined) | 100 µg/mL (≈ 251 µM) |  | 100 µg/mL (≈ 251 µM) |  |  | 100 µg/mL (≈ 251 µM) | 50 µg/mL (≈ 125 µM) | 50 µg/mL (≈ 125 µM) |  | 50 µg/mL (≈ 125 µM) | 50 µg/mL (≈ 125 µM) | 100 µg/mL (≈ 251 µM) | 100 µg/mL (≈ 251 µM) | 100 µg/mL (≈ 251 µM) |  |  |  |  |  | 
9 | CCC1/C(=N\OCc2ccccc2)CC(c2ccccc2)N(C)C1c1ccccc1 (centres undefined) | 50 µg/mL (≈ 125 µM) |  | 100 µg/mL (≈ 251 µM) |  |  | 25 µg/mL (≈ 62.7 µM) | 100 µg/mL (≈ 251 µM) | 50 µg/mL (≈ 125 µM) |  | 50 µg/mL (≈ 125 µM) | 100 µg/mL (≈ 251 µM) | 100 µg/mL (≈ 251 µM) | 100 µg/mL (≈ 251 µM) | 200 µg/mL (≈ 502 µM) |  |  |  |  |  | 
10 | CC1/C(=N\OCc2ccccc2)CC(c2ccc(Cl)cc2)N(C)C1c1ccc(Cl)cc1 (centres undefined) | 25 µg/mL (≈ 55.1 µM) |  | 50 µg/mL (≈ 110 µM) |  |  | 50 µg/mL (≈ 110 µM) | 12.5 µg/mL (≈ 27.6 µM) | 25 µg/mL (≈ 55.1 µM) |  | 25 µg/mL (≈ 55.1 µM) | 100 µg/mL (≈ 221 µM) | 100 µg/mL (≈ 221 µM) | 50 µg/mL (≈ 110 µM) | 25 µg/mL (≈ 55.1 µM) |  |  |  | 1 | 1 | 1
11 | CC(C)C1/C(=N\OCc2ccccc2)CC(c2ccccc2)N(C)C1c1ccccc1 (centres undefined) | 50 µg/mL (≈ 121 µM) |  | 100 µg/mL (≈ 242 µM) |  | inactive | 50 µg/mL (≈ 121 µM) | 50 µg/mL (≈ 121 µM) | 25 µg/mL (≈ 60.6 µM) |  | 100 µg/mL (≈ 242 µM) | 200 µg/mL (≈ 485 µM) | 50 µg/mL (≈ 121 µM) |  | 100 µg/mL (≈ 242 µM) |  |  |  |  |  | 
12 | CN1C(c2ccc(Cl)cc2)CC(=NOCc2ccccc2)CC1c1ccc(Cl)cc1 (centres undefined) | 100 µg/mL (≈ 228 µM) |  | 200 µg/mL (≈ 455 µM) |  |  | 100 µg/mL (≈ 228 µM) | 50 µg/mL (≈ 114 µM) | 50 µg/mL (≈ 114 µM) |  | 100 µg/mL (≈ 228 µM) | 200 µg/mL (≈ 455 µM) | 100 µg/mL (≈ 228 µM) | 200 µg/mL (≈ 455 µM) | 100 µg/mL (≈ 228 µM) |  |  |  |  |  | 

Reference: ChEMBL document CHEMBL3045603, “Synthesis and Microbiological Evaluation of Some N-Methyl Piperidone Oxime Ethers” (2005)
